According to patent US20230180754A1, “HETEROCYCLIC COMPOUNDS FOR THE CONTROL OF INVERTEBRATE PESTS” (priority 2020, published 2023):

How the values were obtained:
Assay type in all cases: in vivo
[1] = test system: green peach aphid (Myzus persicae); assay: Green peach aphid (Myzus persicae), systemic artificial diet/membrane test; settings: 72 h, aphid mortality after 3 days, read-out: mortality in comparison with untreated controls
Source text: For evaluating control of green peach aphid (Myzus persicae) through systemic means the test unit consisted of 96-well-microtiter plates containing liquid artificial diet under an artificial membrane.
The compounds were formulated using a solution containing 75% v/v water and 25% v/v DMSO. Different concentrations of formulated compounds were pipetted into the aphid diet, using a custom-built pipette, at two replications.
After application, 5-8 adult aphids were placed on the artificial membrane inside the microtiter plate wells. The aphids were then allowed to suck on the treated aphid diet and incubated at about 23 ±1° C. and about 50 ±5% relative humidity for 3 days. Aphid mortality and fecundity was then visually assessed.

[2] = test system: yellow fever mosquito (Aedes aegypti); assay: whole plant or invertebrate; settings: 48 h, larval mortality after 2 days, read-out: mortality in comparison with untreated controls
Description: For evaluating control of yellow fever mosquito (Aedes aegypti) the test unit consisted of 96-well-microtiter plates containing 200 μl of tap water per well and 5-15 freshly hatched A. aegypti larvae.
The active compounds were formulated using a solution containing 75% (v/v) water and 25% (v/v) DMSO. Different concentrations of formulated compounds or mixtures were sprayed onto the insect diet at 2.5 μl, using a custom-built micro atomizer, at two replications.
After application, microtiter plates were incubated at 28±1° C., 80±5% RH for 2 days. Larval mortality was then visually assessed.

[3] = test system: boll weevil (Anthonomus grandis); assay: Boll weevil (Anthonomus grandis), microtiter plate insect diet test; settings: 120 h, egg and larval mortality after 5 days, read-out: mortality in comparison with untreated controls
Description: (§1) For evaluating control of boll weevil (Anthonomus grandis) the test unit consisted of 96-well-microtiter plates containing an insect diet and 5-10 A. grandis eggs. The compounds were formulated using a solution containing 75% v/v water and 25% v/v DMSO. Different concentrations of formulated compounds were sprayed onto the insect diet at 5 μl, using a custom-built micro atomizer, at two replications.
After application, microtiter plates were incubated at about 25±1° C. and about 75±5% relative humidity for 5 days. Egg and larval mortality was then visually assessed.

[4] = test system: tobacco budworm (Heliothis virescens); assay: Tobacco budworm (Heliothis virescens), microtiter plate insect diet test; settings: 120 h, egg and larval mortality after 5 days, read-out: mortality in comparison with untreated controls
Description: as §1, with “of tobacco budworm (Heliothis virescens)” for “of boll weevil (Anthonomus grandis)”, “and 15-25 H. virescens” for “and 5-10 A. grandis”, “at 10” for “at 5”
After application, microtiter plates were incubated at about 28±1° C. and about 80±5% relative humidity for 5 days. Egg and larval mortality was then visually assessed.

[5] = test system: diamond back moth (Plutella xylostella); assay: Diamond back moth (Plutella xylostella), cabbage leaf disc dip test; settings: foliar, 72 hours after treatment, 3rd instar larvae, read-out: mortality in comparison with untreated controls
Description: The active compound was dissolved at the desired concentration in a mixture of 1:1 (vol:vol) distilled water:acetone. Surfactant (Kinetic) was added at a rate of 0.01% (vol/vol). The test solution was prepared at the day of use. Cabbage leaf discs (60 mm in diameter) were dipped in test solution and air-dried. Treated leaves were placed in petri dishes lined with moistened filter paper and inoculated with ten 3rd instar larvae. Mortality was recorded 72 hours after treatment. Feeding damages were also recorded using a scale of 0-100%.

[6] = test system: orchid thrips (Dichromothrips corbetti); assay: Orchid thrips (Dichromothrips corbetti), floral-immersion technique; settings: 72 hours after treatment, adult thrips, read-out: mortality in comparison with untreated controls
Description: Dichromothrips corbetti adults used for bioassay were obtained from a colony maintained continuously under laboratory conditions. For testing purposes, the test compound was diluted in a 1:1 mixture of acetone:water (vol:vol), plus Kinetic at a rate of 0.01% v/v.
Thrips potency of each compound was evaluated by using a floral-immersion technique. Each orchid petal was dipped into treatment solution and allowed to dry in Petri dishes. Treated petals were placed into individual re-sealable plastic along with about 20 adult thrips. All test arenas were held under dark condition and a temperature of about 28° C. for duration of the assay. The percent mortality was recorded 72 hours after treatment.

[7] = test system: southern armyworm (Spodoptera eridania), 2nd instar larvae; assay: Southern armyworm (Spodoptera eridania), 2nd instar larvae, sprayed lima bean plants; settings: 96 h, 4 days after treatment, read-out: mortality in comparison with untreated controls
Source text: The active compounds were formulated by a Tecan liquid handler in 100% cyclohexanone as a 10′000 ppm solution supplied in tubes. The 10′000 ppm solution was serially diluted in 100% cyclohexanone to make interim solutions. These served as stock solutions for which final dilutions were made by the Tecan in 50% acetone:50% water (v/v) into 10 or 20m1 glass vials. A nonionic surfactant (Kinetic®) was included in the solution at a volume of 0.01% (v/v). The vials were then inserted into an automated electrostatic sprayer equipped with an atomizing nozzle for application to plants/insects. Lima bean plants (variety Sieva) were grown 2 plants to a pot and selected for treatment at the 1st true leaf stage. Test solutions were sprayed onto the foliage by an automated electrostatic plant sprayer equipped with an atomizing spray nozzle. The plants were dried in the sprayer fume hood and then removed from the sprayer. Each pot was placed into perforated plastic bags with a zip closure. Ten to 11 armyworm larvae were placed into the bag and the bags zipped closed. Test plants were maintained in a growth room at about 25° C. and about 20-40% relative humidity for 4 days, avoiding direct exposure to fluorescent light (14:10 light:dark photo-period) to prevent trapping of heat inside the bags. Mortality and reduced feeding were assessed 4 days after treatment, compared to untreated control plants.

[8] = test system: rice green leafhopper (Nephotettix virescens); assay: Rice green leafhopper (Nephotettix virescens), sprayed rice seedlings; settings: after 72 hours, adults, read-out: mortality in comparison with untreated controls
Description: Four to five-week old rice seedlings with cut upper leaf portion were cleaned and washed 24 hours before spraying. The active compounds were formulated in 1:1 acetone:water (vol:vol), and 0.01% vol/vol surfactant (Kinetic) was added. Potted rice seedlings were sprayed with 5-6 ml test solution, air dried, covered with Mylar cages and inoculated with 10 adults. Treated rice plants were kept at about 28-29° C. and relative humidity of about 50-60%. Percent mortality was recorded after 72 hours.

CC(Nc1noc2c(C(F)(F)F)cc(C(F)(F)F)cc12)c1ncnn1-c1ncccn1 (stereo not drawn) [I-1, N-[1-(2-pyrimidin-2-yl-1,2,4-triazol-3-yl)ethyl]-5,7-bis(trifluoromethyl)-1,2-benzoxazol-3-amine]
≥ 50%: mortality at 2500 ppm [1] | mortality at 2500 ppm [2] | mortality at 2500 ppm [3] | mortality at 2500 ppm [4]

FC(F)(F)c1cc(C(F)(F)F)c2onc(NCc3ncnn3-c3ncccn3)c2c1 [I-2, N-[(2-pyrimidin-2-yl-1,2,4-triazol-3-yl)methyl]-5,7-bis(trifluoromethyl)-1,2-benzoxazol-3-amine]
≥ 50%: mortality at 2500 ppm [2] | mortality at 2500 ppm [3] | mortality at 300 ppm [5] | mortality at 300 ppm [6]

CC(Nc1noc2ncc(C(F)(F)F)cc12)c1ncnn1-c1ncccn1 (stereo not drawn) [I-3, N-[1-(2-pyrimidin-2-yl-1,2,4-triazol-3-yl)ethyl]-5-(trifluoromethyl)isoxazolo[5,4-b]pyridin-3-amine]
≥ 50%: mortality at 2500 ppm [1] | mortality at 2500 ppm [3]

CC(Nc1nn(C)c2ccc(C(F)(F)F)cc12)c1ncnn1-c1ncccn1 (stereo not drawn) [I-4, 1-methyl-N-[1-(2-pyrimidin-2-yl-1,2,4-triazol-3-yl)ethyl]-5-(trifluoromethyl)indazol-3-amine]
≥ 50%: mortality at 2500 ppm [2] | mortality at 2500 ppm [3] | mortality at 2500 ppm [4]

CC(Nc1nsc2c(Cl)cc(Cl)cc12)c1ncnn1-c1ncccn1 (stereo not drawn) [I-5, 5,7-dichloro-N-[1-(2-pyrimidin-2-yl-1,2,4-triazol-3-yl)ethyl]-1,2-benzothiazol-3-amine]
≥ 50%: mortality at 2500 ppm [1] | mortality at 2500 ppm [2] | mortality at 300 ppm [7] | mortality at 2500 ppm [3] | mortality at 2500 ppm [4]

CC(c1ncnn1-c1ncccn1)N(CC1CC1)c1nnc2c(Cl)cc(C(F)(F)F)cn12 (stereo not drawn) [I-6, 8-chloro-N-(cyclopropylmethyl)-N-[1-(2-pyrimidin-2-yl-1,2,4-triazol-3-yl)ethyl]-6-(trifluoromethyl)-[1,2,4]triazolo[4,3-a]pyridin-3-amine]
≥ 50%: mortality at 2500 ppm [1]

CC(Nc1c(C(F)(F)F)c(C(F)(F)C(F)(F)F)nn1C)c1ncnn1-c1ncccn1 (stereo not drawn) [I-7, 2-methyl-5-(1,1,2,2,2-pentafluoroethyl)-N-[1-(2-pyrimidin-2-yl-1,2,4-triazol-3-yl)ethyl]-4-(trifluoromethyl)pyrazol-3-amine]
≥ 50%: mortality at 300 ppm [5] | mortality at 2500 ppm [4] | mortality at 300 ppm [6]

CC(Nc1n[s+]([O-])c2c(Cl)cc(Cl)cc12)c1ncnn1-c1ncccn1 (stereo not drawn) [I-8, 5,7-dichloro-1-oxo-N-[1-(2-pyrimidin-2-yl-1,2,4-triazol-3-yl)ethyl]-1,2-benzothiazol-3-amine]
≥ 50%: mortality at 2500 ppm [1] | mortality at 300 ppm [8] | mortality at 2500 ppm [3] | mortality at 300 ppm [6]

CC(NC1=NS(=O)(=O)c2c(Cl)cc(Cl)cc21)c1ncnn1-c1ncccn1 (stereo not drawn) [I-9, 5,7-dichloro-1,1-dioxo-N-[1-(2-pyrimidin-2-yl-1,2,4-triazol-3-yl)ethyl]-1,2-benzothiazol-3-amine]
≥ 50%: mortality at 2500 ppm [1] | mortality at 2500 ppm [3]

CCC(Nc1noc2c(C(F)(F)F)cc(C(F)(F)F)cc12)c1ncnn1-c1ncccn1 (stereo not drawn) [I-28, N-[1-(2-pyrimidin-2-yl-1,2,4-triazol-3-yl)propyl]-5,7-bis(trifluoromethyl)-1,2-benzoxazol-3-amine]
≥ 50%: mortality at 2500 ppm [1] | mortality at 2500 ppm [3] | mortality at 300 ppm [5] | mortality at 2500 ppm [4] | mortality at 300 ppm [6]
